Data taken from patent publication EP0554004A2, “Cephem compounds and antibacterial agents” (KATAYAMA SEIYAKUSYO CO. Ltd., priority 1992, dated 1993).
Converted amounts (≈) assume the structure as drawn. Where two headings read alike, the source gives them in different places. One block for each molecule: values may come before it.

What was measured:
A. calcoaceticos T59 = experiment: MIC against standard strains (Test Example 3); format: cell-based
Description: (§1) By using each test strain cultured overnight at 37°C in a Muller-Hinton broth, there was prepared a bacterial solution with a bacterial cell population of 1 x 10^6 CFU/mi of the same bouillon. The bacterial solution was inoculated into the Muller-Hinton agar media each containing respectively one test agent and, after overnight incubation at 37°C, the minimum concentration that inhibited growth of the bacteria was determined and shown as MIC also in Table 1.
(§2) The minimum growth inhibitory concentration was determined for each of the 21 standard strains shown in Table 3, according to the same method as used in Test Example 1.
(§3) In the test, FMOX (flomoxef), CTM (cefotiam) and CEZ (cefazolin) were used as control agents.

A. faecalis ATCC3750 = experiment: MIC against standard strains (Test Example 3); format: cell-based; conditions: Alcaligenes faecalis
Description: as §1, §2, §3

B. subtilis ATCC6633 = experiment: MIC against standard strains (Test Example 3); format: cell-based; conditions: Bacillus subtilis
Description: as §1, §2, §3

C. freundii ATCC8090 = experiment: MIC against standard strains (Test Example 3); format: cell-based; conditions: Citrobacter freundii
Description: as §1, §2, §3

E. cloacae ATCC13407 = experiment: MIC against standard strains (Test Example 3); format: cell-based; conditions: Enterobacter cloacae
Description: as §1, §2, §3

E. coli CSH2 (RE45) = experiment: MIC against standard strains (Test Example 3); format: cell-based; conditions: Escherichia coli
Description: as §1, §2, §3

E. coli CSH2 (RK1) = experiment: MIC against standard strains (Test Example 3); format: cell-based; conditions: Escherichia coli
Description: as §1, §2, §3

E. coli NIHJ JC-2 = experiment: MIC against standard strains (Test Example 3); format: cell-based; conditions: Escherichia coli, NIHJJC2
Description: as §1, §2, §3

K. pneumoniae IFO3317 = experiment: MIC against standard strains (Test Example 3); format: cell-based; conditions: Klebsiella pneumoniae
Description: as §1, §2, §3

K. pneumoniae No. 42 = experiment: MIC against standard strains (Test Example 3); format: cell-based; conditions: Klebsiella pneumoniae
Description: as §1, §2, §3

M. Morganii IFO3848 = experiment: MIC against standard strains (Test Example 3); format: cell-based; conditions: Morganella morganii
Description: as §1, §2, §3

M. luteus ATCC 9341 = experiment: MIC against standard strains (Test Example 3); format: cell-based; conditions: Micrococcus luteus, ATCC9341
Description: as §1, §2, §3

P. aeruginosa NCTC10490 = experiment: MIC against standard strains (Test Example 3); format: cell-based; conditions: Pseudomonas aeruginosa
Description: as §1, §2, §3

P. mirabilis IFO3849 = experiment: MIC against standard strains (Test Example 3); format: cell-based; conditions: Proteus mirabilis
Description: as §1, §2, §3

P. vulugaris OX-19 = experiment: MIC against standard strains (Test Example 3); format: cell-based
Description: as §1, §2, §3

S. aureus 167 = experiment: MIC against standard strains (Test Example 3); format: cell-based; conditions: Staphylococcus aureus
Description: as §1, §2, §3

S. aureus 195 = experiment: MIC against standard strains (Test Example 3); format: cell-based; conditions: Staphylococcus aureus
Description: as §1, §2, §3

S. aureus 209p JC-1 = experiment: MIC against standard strains (Test Example 3); format: cell-based; conditions: Staphylococcus aureus
Description: as §1, §2, §3

S. aureus Smith = experiment: MIC against standard strains (Test Example 3); format: cell-based; conditions: Staphylococcus aureus
Description: as §1, §2, §3

S. epidemidis IAM1296 = experiment: MIC against standard strains (Test Example 3); format: cell-based
Description: as §1, §2, §3

S. marcescens IAM1184 = experiment: MIC against standard strains (Test Example 3); format: cell-based; conditions: Serratia marcescens
Description: as §1, §2, §3

clinically isolated MRSA [1] = experiment: Antibacterial potency against clinically isolated MRSA (Test Example 4); format: cell-based, methicillin-resistant Staphylococcus aureus; conditions: Staphylococcus aureus, MRSA
Description: (§4) 52 strains of clinically isolated MRSA were used, and MIC was determined for each of the strains according to the standard method of the Japan Chemotherapical Society as in Test Example 1. The minimum growth inhibitory concentration which inhibited growth of 50% of the strains tested was expressed as MIC50 (µg/ml), and the minimum growth inhibitory concentration which inhibited growth of 90% of the strains was expressed as MIC90 (µg/ml).
MIC 50 and MIC 90 were determined for each of the 52 strains of clinically isolated MRSA according to the same method as used in Test Example 2.
VCM (vancomycin) was used as control agent.

clinically isolated MRSA [2] = experiment: Antibacterial potency against clinically isolated MRSA (Test Example 2); format: cell-based, methicillin-resistant Staphylococcus aureus; conditions: Staphylococcus aureus, 52 strains of clinically isolated MRSA; for MIC50: concentration inhibiting growth of 50% of the strains (Test Example 2); for MIC90: concentration inhibiting growth of 90% of the strains (Test Example 2)
Description: A test on the antibacterial potency against clinically isolated MRSA was conducted in the following way.
as §4
In this test, FMOX (flomoxef), IPM/CS (imipenem/cilastatin), CMZ (cefmetazole), MINO (minocycline) and DMPPC (methicillin) were used as control agents.

SMILES: Cc1nnc(SCC2=C(C(=O)O)N3C(=O)[C@@H](NC(=O)Cn4cnnn4)[C@H]3SC2)s1 [CEZ, cefazolin, reference compound]
- MIC (A. calcoaceticos T59; A. calcoaceticos T59 (Test Example 3), read-out: MIC): > 100 µg/mL
- MIC (A. faecalis ATCC3750; A. faecalis ATCC3750 (Test Example 3), read-out: MIC): 12.5 µg/mL (≈ 27.6 µM)
- MIC (B. subtilis ATCC6633; B. subtilis ATCC6633 (Test Example 3), read-out: MIC): 0.2 µg/mL (≈ 0.44 µM)
- MIC (C. freundii ATCC8090; C. freundii ATCC8090 (Test Example 3), read-out: MIC): 3.13 µg/mL (≈ 6.89 µM)
- MIC (E. cloacae ATCC13407; E. cloacae ATCC13407 (Test Example 3), read-out: MIC): > 100 µg/mL
- MIC (E. coli CSH2 (RE45)): 1.56 µg/mL (≈ 3.43 µM)
- MIC (E. coli CSH2 (RK1)): 3.13 µg/mL (≈ 6.89 µM)
- MIC (E. coli NIHJ JC-2; E. coli NIHJ JC-2 (Test Example 3), read-out: MIC): 1.56 µg/mL (≈ 3.43 µM)
- MIC (K. pneumoniae IFO3317; K. pneumoniae IFO3317 (Test Example 3), read-out: MIC): 0.78 µg/mL (≈ 1.72 µM)
- MIC (K. pneumoniae No. 42; K. pneumoniae No. 42 (Test Example 3), read-out: MIC): 3.13 µg/mL (≈ 6.89 µM)
- MIC (M. Morganii IFO3848; M. Morganii IFO3848 (Test Example 3), read-out: MIC): 25 µg/mL (≈ 55 µM)
- MIC (M. luteus ATCC 9341; M. luteus ATCC 9341 (Test Example 3), read-out: MIC): 0.78 µg/mL (≈ 1.72 µM)
- MIC (P. aeruginosa NCTC10490; P. aeruginosa NCTC10490 (Test Example 3), read-out: MIC): > 100 µg/mL
- MIC (P. mirabilis IFO3849; P. mirabilis IFO3849 (Test Example 3), read-out: MIC): 6.25 µg/mL (≈ 13.8 µM)
- MIC (P. vulugaris OX-19; P. vulugaris OX-19 (Test Example 3), read-out: MIC): 12.5 µg/mL (≈ 27.5 µM)
- MIC (S. aureus 167; S. aureus 167 (MRSA) (Test Example 3), read-out: MIC): 100 µg/mL (≈ 220 µM)
- MIC (S. aureus 195; S. aureus 195 (MRSA) (Test Example 3), read-out: MIC): 50 µg/mL (≈ 110 µM)
- MIC (S. aureus 209p JC-1; S. aureus 209p JC-1 (Test Example 3), read-out: MIC): 0.2 µg/mL (≈ 0.44 µM)
- MIC (S. aureus Smith; S. aureus Smith (Test Example 3), read-out: MIC): 0.2 µg/mL (≈ 0.44 µM)
- MIC (S. epidemidis IAM1296; S. epidemidis IAM1296 (Test Example 3), read-out: MIC): 0.1 µg/mL (≈ 0.22 µM)
- MIC (S. marcescens IAM1184; S. marcescens IAM1184 (Test Example 3), read-out: MIC): > 100 µg/mL

SMILES: NC(=O)Oc1ccc[n+](CC2=C(C(=O)[O-])N3C(=O)[C@@H](NC(=O)/C(=N\O)c4csc(N)n4)[C@H]3SC2)c1 [Compound (8), 7β-[2-(2-aminothiazol-4-yl)-2-syn-hydroxyiminoacetamido]-3-[(3-carbamoyloxy-1-pyridinio)methyl]-3-cephem-4-carboxylic acid chloride]
- MIC (A. calcoaceticos T59): 25 µg/mL
- MIC (A. faecalis ATCC3750; ATCC3750): 0.78 µg/mL
- MIC (B. subtilis ATCC6633; ATCC6633): 0.39 µg/mL
- MIC (C. freundii ATCC8090; ATCC8090): 0.39 µg/mL
- MIC (E. cloacae ATCC13407; ATCC13407): 1.56 µg/mL
- MIC (E. coli CSH2 (RE45)): 0.2 µg/mL
- MIC (E. coli CSH2 (RK1)): 0.39 µg/mL
- MIC (E. coli NIHJ JC-2): 0.1 µg/mL
- MIC (K. pneumoniae IFO3317; IFO3317): 0.1 µg/mL
- MIC (K. pneumoniae No. 42; NO.42): 0.39 µg/mL
- MIC (M. Morganii IFO3848; IFO3848): 0.05 µg/mL
- MIC (M. luteus ATCC 9341): 0.1 µg/mL
- MIC (P. aeruginosa NCTC10490; NCTC10490): 100 µg/mL
- MIC (P. mirabilis IFO3849; IFO3849): 0.1 µg/mL
- MIC (P. vulugaris OX-19): 0.2 µg/mL
- MIC (S. aureus 167; MRSA): 50 µg/mL
- MIC (S. aureus 195; MRSA): 25 µg/mL
- MIC (S. aureus 209p JC-1; 209P): 0.78 µg/mL
- MIC (S. aureus Smith): 1.56 µg/mL
- MIC (S. epidemidis IAM1296): 0.39 µg/mL
- MIC (S. marcescens IAM1184; IAM1184): 0.39 µg/mL
- MIC50 (clinically isolated MRSA [1]): 8.34 µg/mL
- MIC90 (clinically isolated MRSA [1]): 37.9 µg/mL

- MIC50 (clinically isolated MRSA [2]): 16.8 µg/mL (≈ 35.6 µM)
- MIC90 (clinically isolated MRSA [2]): 49.8 µg/mL (≈ 106 µM)
SMILES: CO[C@@]1(NC(=O)CSCC#N)C(=O)N2C(C(=O)O)=C(CSc3nnnn3C)CS[C@@H]21 [CMZ, cefmetazole, reference compound]

SMILES: CN[C@H](CC(C)C)C(=O)N[C@H]1C(=O)N[C@@H](CC(N)=O)C(=O)N[C@H]2C(=O)N[C@H]3C(=O)N[C@H](C(=O)N[C@H](C(=O)O)c4cc(O)cc(O)c4-c4cc3ccc4O)[C@H](O)c3ccc(c(Cl)c3)Oc3cc2cc(c3O[C@@H]2O[C@H](CO)[C@@H](O)[C@H](O)[C@H]2O[C@H]2C[C@](C)(N)[C@H](O)[C@H](C)O2)Oc2ccc(cc2Cl)[C@H]1O [VCM, vancomycin, reference compound]
- MIC50 (clinically isolated MRSA [1]): 0.74 µg/mL (≈ 0.511 µM)
- MIC90 (clinically isolated MRSA [1]): 1.38 µg/mL (≈ 0.952 µM)

- MIC50 (clinically isolated MRSA [2]): 42.5 µg/mL (≈ 112 µM)
- MIC90 (clinically isolated MRSA [2]): > 100 µg/mL
SMILES: COc1cccc(OC)c1C(=O)N[C@@H]1C(=O)N2[C@@H]1SC(C)(C)[C@@H]2C(=O)O [DMPPC, methicillin, reference compound]
